# Molecular target: T1, mutant G12C K-RAS (Homo sapiens, UniProt P01116, G12C)
# T1 construct: made in house; host or cells: E. coli BL21
# Test: covalent adduct formation (CAF) with mutant G12C K-RAS
# Type: binding
# Conditions: Table 1, Pyrimidone Core-Morpholine Unsubstituted; after 60 minutes at 10 micromolar
# Experimental: Embodiments disclosed herein are further illustrated by the following examples in Tables 1-4 and the Examples hereinbelow. The Tables indicate the compound number, structure, the observed mass spectral molecular weight peak, and covalent adduct formation (CAF) with a mutant G12C K-RAS after 60 minutes at a concentration of 10 micromolar.
row,Compound,% CAF (60 min) [%]
1,"C=C(F)C(=O)N1CCN(c2nc(=O)n3c4c(c(-c5c(O)cccc5F)c(Cl)cc24)OCC3)C[C@@H]1CC#N (atropisomer, axis not shown) [Example 10, 2-((2S)-4-(9-chloro-10-(2-fluoro-6-hydroxyphenyl)-5-oxo-3,5-dihydro-2H-[1,4]oxazino[2,3,4-ij]quinazolin-7-yl)-1-(2-fluoroacryloyl)piperazin-2-yl)acetonitrile]",8.5

# Same assay, conditions: Table 6; 10 μM, 1 h
row,Compound,"% CAF @ 10 μM,1 h [%]"
1,"C=CC(=O)N1C[C@H](C)N(c2nc(=O)n3c4c(c(-c5c(O)cccc5F)c(Cl)cc24)OC[C@@H]3CN2CCOCC2)C[C@H]1C (atropisomer, axis not shown) [Example 208, (3R,10R)-7-((2S,5R)-4-acryloyl-2,5-dimethylpiperazin-1-yl)-9-chloro-10-(2-fluoro-6-hydroxyphenyl)-3 - (morpholinomethyl)-2,3-dihydro-5H-[1,4]oxazino[2,3,4-ij]quinazolin-5-one]",0
2,"C=CC(=O)N1C[C@H](C)N(c2nc(=O)n3c4c(c(-c5c(O)cccc5F)c(Cl)cc24)OC[C@H]3CN2CCOCC2)C[C@H]1C (atropisomer, axis not shown) [Example 209, (3R,10S)-7-((2S,5R)-4-acryloyl-2,5-dimethylpiperazin-1-yl)-9-chloro-10-(2-fluoro-6-hydroxyphenyl)-3-(morpholinomethyl)-2,3-dihydro-5H-[1,4]oxazino[2,3,4-ij]quinazolin-5-one]",85
3,"C=CC(=O)N1C[C@H](C)N(c2nc(=O)n3c4c(c(-c5c(O)cccc5F)c(Cl)cc24)OC[C@H]3CN2CCOCC2)C[C@H]1C (atropisomer, axis not shown) [Example 210, (3R,10R)-7-((2S,5R)-4-acryloyl-2,5-dimethylpiperazin-1-yl)-9-chloro-10-(2-fluoro-6-hydroxyphenyl)-3-(morpholinomethyl)-2,3-dihydro-5H-[1,4]oxazino[2,3,4-ij]quinazolin-5-one]",0
4,"C=CC(=O)N1C[C@H](C)N(c2nc(=O)n3c4c(c(-c5c(O)cccc5F)c(Cl)cc24)OC[C@H]3CN2CCC(F)(F)C2)C[C@H]1C (atropisomer, axis not shown) [Example 222, (3R,10S)-7-((2S,5R)-4-acryloyl-2,5-dimethylpiperazin-1-yl)-9-chloro-3-((3,3-difluoropyrrolidin-1-yl)methyl)-10-(2-fluoro-6-hydroxyphenyl)-2,3-dihydro-5H-[1,4]oxazino[2,3,4-ij]quinazolin-5-one]",1.4
5,"C=CC(=O)N1C[C@H](C)N(c2nc(=O)n3c4c(c(-c5c(O)cccc5F)c(Cl)cc24)OC[C@@H]3CCCN2CCOCC2)C[C@H]1C (atropisomer, axis not shown) [Example 225, (3S,10R)-7-((2S,5R)-4-acryloyl-2,5-dimethylpiperazin-1-yl)-9-chloro-10-(2-fluoro-6-hydroxyphenyl)-3-(3-morpholinopropyl)-2,3-dihydro-5H-[1,4]oxazino[2,3,4-ij]quinazolin-5-one]",4.4
6,"C=CC(=O)N1C[C@H](C)N(c2nc(=O)n3c4c(c(-c5c(O)cccc5F)c(Cl)cc24)OC[C@@H]3CCCN2CCOCC2)C[C@H]1C (atropisomer, axis not shown) [Example 226, (3S,10S)-7-((2S,5R)-4-acryloyl-2,5-dimethylpiperazin-1-yl)-9-chloro-10-(2-fluoro-6-hydroxyphenyl)-3-(3-morpholinopropyl)-2,3-dihydro-5H-[1,4]oxazino[2,3,4-ij]quinazolin-5-one]",97.8
7,"C=CC(=O)N1CCN(c2nc(=O)n3c4c(c(-c5c(O)cccc5F)c(Cl)cc24)OC[C@H]3CN2CCC(F)(F)C2)[C@@H](C)C1 (atropisomer, axis not shown) [Example 227, (3R,10R)-7-((S)-4-acryloyl-2-methylpiperazin-1-yl)-9-chloro-3-((3,3-difluoropyrrolidin-1-yl)methyl)-10-(2-fluoro-6-hydroxyphenyl)-2,3-dihydro-5H-[1,4]oxazino[2,3,4-ij]quinazolin-5-one]",0
8,"C=CC(=O)N1CCN(c2nc(=O)n3c4c(c(-c5c(O)cccc5F)c(Cl)cc24)OC[C@@H]3CN2CCC(F)(F)C2)[C@@H](C)C1 (atropisomer, axis not shown) [Example 228, (3S,10S)-7-((S)-4-acryloyl-2-methylpiperazin-1-yl)-9-chloro-3-((3,3-difluoropyrrolidin-1-yl)methyl)-10-(2-fluoro-6-hydroxyphenyl)-2,3-dihydro-5H-[1,4]oxazino[2,3,4-ij]quinazolin-5-one]",98
9,"C=CC(=O)N1CCN(c2nc(=O)n3c4c(c(-c5c(O)cccc5F)c(Cl)cc24)OC[C@@H]3CN2CCC(F)(F)C2)[C@@H](C)C1 (atropisomer, axis not shown) [Example 229, (3S,10R)-7-((S)-4-acryloyl-2-methylpiperazin-1-yl)-9-chloro-3-((3,3-difluoropyrrolidin-1-yl)methyl)-10-(2-fluoro-6-hydroxyphenyl)-2,3-dihydro-5H-[1,4]oxazino[2,3,4-ij]quinazolin-5-one]",1.6
10,"C=CC(=O)N1CCN(c2nc(=O)n3c4c(c(-c5c(O)cccc5F)c(Cl)cc24)OC[C@H]3CN2CCC(F)(F)C2)[C@@H](C)C1 (atropisomer, axis not shown) [Example 230, (3R,10S)-7-((S)-4-acryloyl-2-methylpiperazin-1-yl)-9-chloro-3-((3,3-difluoropyrrolidin-1-yl)methyl)-10-(2-fluoro-6-hydroxyphenyl)-2,3-dihydro-5H-[1,4]oxazino[2,3,4-ij]quinazolin-5-one]",75.9
11,"C=CC(=O)N1C[C@H](C)N(c2nc(=O)n3c4c(c(-c5c(O)cccc5F)c(Cl)cc24)OC[C@@H]3CN(C)CC(F)(F)F)C[C@H]1C (atropisomer, axis not shown) [Example 239, (3S,10R)-7-((2S,5R)-4-acryloyl-2,5-dimethylpiperazin-1-yl)-9-chloro-10-(2-fluoro-6-hydroxyphenyl)-3-((methyl(2,2,2-trifluoroethyl)amino)methyl)-2H-[1,4]oxazino[2,3,4-ij]quinazolin-5(3H)-one]",3
12,"C=CC(=O)N1C[C@H](C)N(c2nc(=O)n3c4c(c(-c5c(O)cccc5F)c(Cl)cc24)OC[C@@H]3CN(C)CC(F)(F)F)C[C@H]1C (atropisomer, axis not shown) [Example 240, (3S,10S)-7-((2S,5R)-4-acryloyl-2,5-dimethylpiperazin-1-yl)-9-chloro-10-(2-fluoro-6-hydroxyphenyl)-3-((methyl(2,2,2-trifluoroethyl)amino)methyl)-2H-[1,4]oxazino[2,3,4-ij]quinazolin-5(3H)-one]",82.1
13,"C=CC(=O)N1C[C@H](C)N(c2nc(=O)n3c4c(c(-c5c(O)cccc5F)c(Cl)cc24)OC[C@H]3CN(C)CC(F)(F)F)C[C@H]1C (atropisomer, axis not shown) [Example 241, (3R,10R)-7-((2S,5R)-4-acryloyl-2,5-dimethylpiperazin-1-yl)-9-chloro-10-(2-fluoro-6-hydroxyphenyl)-3-((methyl(2,2,2-trifluoroethyl)amino)methyl)-2H-[1,4]oxazino[2,3,4-ij]quinazolin-5(3H)-one]",0
14,"C=CC(=O)N1C[C@H](C)N(c2nc(=O)n3c4c(c(-c5c(O)cccc5F)c(Cl)cc24)OC[C@H]3CN(C)CC(F)(F)F)C[C@H]1C (atropisomer, axis not shown) [Example 242, (3R,10S)-7-((2S,5R)-4-acryloyl-2,5-dimethylpiperazin-1-yl)-9-chloro-10-(2-fluoro-6-hydroxyphenyl)-3-((methyl(2,2,2-trifluoroethyl)amino)methyl)-2H-[1,4]oxazino[2,3,4-ij]quinazolin-5(3H)-one]",63.1
15,"C=CC(=O)N1C[C@H](C)N(c2nc(=O)n3c4c(c(-c5c(O)cccc5F)c(Cl)cc24)OC[C@@H]3Cn2cccn2)C[C@H]1C (atropisomer, axis not shown) [Example 243, (3S,10S)-3-((1H-pyrazol-1-yl)methyl)-7-((2S,5R)-4-acryloyl-2,5-dimethylpiperazin-1-yl)-9-chloro-10-(2-fluoro-6-hydroxyphenyl)-2H-[1,4]oxazino[2,3,4-ij]quinazolin-5(3H)-one]",80.6
16,"C=CC(=O)N1C[C@H](C)N(c2nc(=O)n3c4c(c(-c5c(O)cccc5F)c(Cl)cc24)OC[C@@H]3Cn2cccn2)C[C@H]1C (atropisomer, axis not shown) [Example 244, (3S,10R)-3-((1H-pyrazol-1-yl)methyl)-7-((2S,5R)-4-acryloyl-2,5-dimethylpiperazin-1-yl)-9-chloro-10-(2-fluoro-6-hydroxyphenyl)-2H-[1,4]oxazino[2,3,4-ij]quinazolin-5(3H)-one]",4.4
17,"C=CC(=O)N1C[C@H](C)N(c2nc(=O)n3c4c(c(-c5c(O)cccc5F)c(Cl)cc24)OC[C@H]3Cn2cccn2)C[C@H]1C (atropisomer, axis not shown) [Example 245, (3R,10R)-3-((1H-pyrazol-1-yl)methyl)-7-((2S,5R)-4-acryloyl-2,5-dimethylpiperazin-1-yl)-9-chloro-10-(2-fluoro-6-hydroxyphenyl)-2H-[1,4]oxazino[2,3,4-ij]quinazolin-5(3H)-one]",0
18,"C=CC(=O)N1C[C@H](C)N(c2nc(=O)n3c4c(c(-c5c(O)cccc5F)c(Cl)cc24)OC[C@H]3Cn2cccn2)C[C@H]1C (atropisomer, axis not shown) [Example 246, (3R,10S)-3-((1H-pyrazol-1-yl)methyl)-7-((2S,5R)-4-acryloyl-2,5-dimethylpiperazin-1-yl)-9-chloro-10-(2-fluoro-6-hydroxyphenyl)-2H-[1,4]oxazino[2,3,4-ij]quinazolin-5(3H)-one]",97.4
